# Source: ChEMBL document CHEMBL1124940, “N-[(arylmethoxy)phenyl] carboxylic acids, hydroxamic acids, tetrazoles, and sulfonyl carboxamides. Potent orally active leukotriene D4 antagonists of novel structure” (J Med Chem, 1990)
# Assays:
# Cavia porcellus [1] = test: Inhibition of LTD4-induced broncho constriction in Guinea pig after intragastrical administration of a dose of 25 mg/kg; type: functional; settings: po, route intragastric
# Cavia porcellus [2] = test: Inhibition of LTD4-induced broncho constriction in Guinea pig after intragastrical administration of a dose of 3 mg/kg; type: functional; settings: po, route intragastric
# Cavia porcellus [3] = test: Tested for the inhibition of LTD4-induced broncho constriction in Guinea pig, injected intraduodenally at a dose of 25 mg/kg; type: functional; settings: route intraduodenal
# Cavia porcellus [4] = test: Tested for the inhibition of ovalbumin- induced bronchoconstriction in Guinea pig, injected intragastrically. Compound dose is 25 mg/kg; type: functional; settings: po, route intragastric
# Cavia porcellus [5] = test: Tested for the inhibition of LTD4-induced bronchoconstriction in Guinea pig, injected intraduodenally, dose of 3 mg/kg; type: functional; settings: route intraduodenal
# Cavia porcellus [6] = test: Tested for the inhibition of ovalbumin- induced bronchoconstriction in Guinea pig, injected intragastrically. Compound dose is 10 mg/kg; type: functional; settings: po, route intragastric
# Cavia porcellus [7] = test: -log dissociation constant was determined In vitro in isolated guinea pig trachea after intraduodenal administration (before 10 min); type: ADME, organism-based; settings: in vivo, other
# Cavia porcellus [8] = test: In vitro LTD4-induced bronchoconstriction. i n isolated guinea pig trachea by injecting intraduodenally.; type: functional; settings: intraduodenal
# Cavia porcellus [9] = test: In vitro inhibition of ovalbumin-induced bronchoconstriction in isolated guinea pig trachea was determined after intraduodenal aministration; type: functional
# Cavia porcellus [10] = test: Tested for the inhibition of ovalbumin- induced bronchoconstriction in Guinea pig, injected intraduodenally, dose of 25 mg/kg; type: functional; settings: route intraduodenal
# Cavia porcellus [11] = test: Tested for the inhibition of LTD4-induced bronchoconstriction in Guinea pig, injected intragastrically, dose of 25 mg/kg; type: functional; settings: po, route intragastric
# Cavia porcellus [12] = test: Inhibition of ovalbumin-induced broncho constriction in Guinea pig after intragastrical administration of a dose of 25 mg/kg; type: functional; settings: po, route intragastric
# Cavia porcellus [13] = test: Tested for the inhibition of LTD4-induced broncho constriction in Guinea pig, compound injected intragastrically at a dose of 25 mg/kg; type: functional; settings: po, route intragastric
# Cavia porcellus [14] = test: Inhibition of LTD4-induced broncho constriction in Guinea pig, compound injected intraduodenally at a dose of 25 mg/kg; type: functional; settings: route intraduodenal
# Cavia porcellus [15] = test: Tested for the inhibition of ovalbumin- induced bronchoconstriction in Guinea pig, injected intraduodenally, dose of 3 mg/kg.; type: functional; settings: route intraduodenal
# Cavia porcellus [16] = test: Tested for the inhibition of LTD4-induced bronchoconstriction in Guinea pig, injected intraduodenally, dose is 3 mg/kg; type: functional; settings: route intraduodenal
# Cavia porcellus [17] = test: Tested for the inhibition of LTD4-induced bronchoconstriction in Guinea pig, injected intragastrically, dose of 3 mg/kg.; type: functional; settings: po, route intragastric
# Cavia porcellus [18] = test: Tested for the inhibition of ovalbumin- induced bronchoconstriction in Guinea pig, injected intraduodenally, dose is 25 mg/kg.; type: functional; settings: route intraduodenal
# Cavia porcellus [19] = test: Tested for the inhibition of ovalbumin- induced bronchoconstriction in Guinea pig, injected intragastrically, dose of 25 mg/kg; type: functional; settings: po, route intragastric
# Cavia porcellus [20] = test: Tested for the inhibition of ovalbumin- induced bronchoconstriction in Guinea pig, injected intragastrically, dose of 10 mg/kg.; type: functional; settings: po, route intragastric
# Cavia porcellus [21] = test: Tested for the inhibition of LTD4-induced bronchoconstriction in Guinea pig, injected intragastrically, dose of 10 mg/kg; type: functional; settings: po, route intragastric
# Cavia porcellus [22] = test: Inhibition of LTD4-induced broncho constriction in Guinea pig after intraduodenal administration of a dose of 3 mg/kg; type: functional
# Cavia porcellus [23] = test: Tested for the inhibition of ovalbumin- induced bronchoconstriction in Guinea pig, compound injected intragastrically, dose of 25 mg/kg; type: functional; settings: po, route intragastric
# Cavia porcellus [24] = test: Tested for the inhibition of ovalbumin induced bronchoconstriction in Guinea pig, compound injected intraduodenally, dose is 25 mg/kg; type: functional; settings: route intraduodenal
# Cavia porcellus [25] = test: Tested for the inhibition of LTD4-induced bronchoconstriction in Guinea pig, compound injected intragastrically, dose of 3 mg/kg; type: functional; settings: po, route intragastric
# Cavia porcellus [26] = test: Dissociation constant was determined in vitro after intraduodenal administration in isolated guinea pig trachea; type: ADME, organism-based; settings: in vivo, other
# Rattus norvegicus = test: Antiinflammatory effect was studied in a rat carrageenan paw edema (CE) assay at 50 mg/kg; type: functional
# [27] = target: T1, Polyunsaturated fatty acid 5-lipoxygenase (Rattus norvegicus, UniProt P12527); test: Concentration for 50% inhibition of A-23187-stimulated radiolabeled 5-HETE and TXB2 synthesis by PMN 5-lipoxygenase; type: functional
# T1 sequence (P12527 whole entry): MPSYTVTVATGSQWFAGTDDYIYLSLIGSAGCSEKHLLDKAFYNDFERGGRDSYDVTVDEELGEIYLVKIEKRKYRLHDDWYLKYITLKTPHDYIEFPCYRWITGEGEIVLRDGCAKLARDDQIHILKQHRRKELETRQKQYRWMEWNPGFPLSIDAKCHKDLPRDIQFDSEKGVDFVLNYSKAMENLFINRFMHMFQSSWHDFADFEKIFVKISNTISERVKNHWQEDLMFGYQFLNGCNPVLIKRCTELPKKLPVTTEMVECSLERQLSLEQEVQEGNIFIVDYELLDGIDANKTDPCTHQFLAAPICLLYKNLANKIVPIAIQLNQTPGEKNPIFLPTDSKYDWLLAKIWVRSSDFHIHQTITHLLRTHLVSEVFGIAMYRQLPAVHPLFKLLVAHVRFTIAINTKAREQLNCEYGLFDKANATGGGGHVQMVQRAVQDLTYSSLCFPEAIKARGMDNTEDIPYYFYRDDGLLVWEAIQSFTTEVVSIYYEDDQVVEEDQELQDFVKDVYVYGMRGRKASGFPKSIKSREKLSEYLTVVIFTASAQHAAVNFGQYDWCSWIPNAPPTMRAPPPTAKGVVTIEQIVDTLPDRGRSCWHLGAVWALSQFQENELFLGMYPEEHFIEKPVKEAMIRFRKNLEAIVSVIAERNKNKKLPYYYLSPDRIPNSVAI
# Cavia porcellus [28] = test: Tested for the inhibition of ovalbumin induced bronchoconstriction in Guinea pig, compound injected intraduodenally, dose is 10 mg/kg; type: functional; settings: route intraduodenal
# Cavia porcellus [29] = test: Tested for the inhibition of LTD4-induced bronchoconstriction in Guinea pig, compound injected intragastrically, dose of 25 mg/kg; type: functional; settings: po, route intragastric
# Cavia porcellus [30] = test: In vitro Inhibition of ovalbumin-induced bronchoconstriction in isolated guinea pig trachea by injecting intraduodenally; type: functional; settings: intraduodenal
# Cavia porcellus [31] = test: In vitro inhibition of LTD4-induced bronchoconstriction in isolated guinea pig trachea by injecting intraduodenally; type: functional; settings: intraduodenal
# Cavia porcellus [32] = test: In vitro inhibition of LTD4-induced bronchoconstriction into isolated guinea pig trachea by injecting intragastrically; type: functional; settings: po
# Cavia porcellus [33] = species on record: Cavia porcellus; test: Dose of antagonist that produces 50% inhibition of ovalbumin-induced bronchoconstriction; type: functional
# Cavia porcellus [34] = test: Tested for the inhibition of ovalbumin- induced bronchoconstriction in Guinea pig, compound injected intragastrically, dose of 3 mg/kg; type: functional; settings: po, route intragastric
smiles,measurement,setting,value
c1cc(OCc2ccc3ccccc3n2)cc(-c2nn[nH]n2)c1,inhibition in vivo at 25 mg/kg,Cavia porcellus [1],< 89%
same,inhibition in vivo at 3 mg/kg,Cavia porcellus [2],13%
same,inhibition in vivo at 25 mg/kg,Cavia porcellus [3],90%
c1ccc2nc(COc3ccc(Cc4nnn[nH]4)cc3)ccc2c1,inhibition in vivo at 25 mg/kg,Cavia porcellus [4],76%
same,inhibition in vivo at 3 mg/kg,Cavia porcellus [5],-15%
same,inhibition in vivo at 25 mg/kg,Cavia porcellus [1],90%
same,inhibition in vivo at 10 mg/kg,Cavia porcellus [6],6%
same,inhibition in vivo at 3 mg/kg,Cavia porcellus [2],4%
same,inhibition in vivo at 25 mg/kg,Cavia porcellus [3],88%
COC(=O)CCC(=O)N(O)c1cccc(OCc2ccc3ccccc3n2)c1,pKb,Cavia porcellus [7],6.5
same,ED50,Cavia porcellus [8],3.3 mg/kg
same,ED50,Cavia porcellus [9],27.4 mg/kg
CS(=O)(=O)NC(=O)c1cccc(OCc2ccc3ccccc3n2)c1,inhibition in vivo at 25 mg/kg,Cavia porcellus [1],< 66%
same,inhibition in vivo at 25 mg/kg,Cavia porcellus [10],< 13%
same,inhibition in vivo at 3 mg/kg,Cavia porcellus [2],20%
same,inhibition in vivo at 25 mg/kg,Cavia porcellus [3],90%
Cc1ccc(S(=O)(=O)NC(=O)CCc2cccc(OCc3ccc4ccccc4n3)c2)cc1,inhibition in vivo at 25 mg/kg,Cavia porcellus [11],< 66%
same,inhibition in vivo at 25 mg/kg,Cavia porcellus [3],97%
same,inhibition in vivo at 25 mg/kg,Cavia porcellus [12],< 26%
O=C(O)Cc1cccc(OCc2ccc3ccccc3n2)c1,inhibition in vivo at 25 mg/kg,Cavia porcellus [13],< 99%
c1cc(Cc2nnn[nH]2)cc(OCc2nc3ccccc3s2)c1,inhibition in vivo at 25 mg/kg,Cavia porcellus [3],< 95%
O=C(O)Cc1ccc(OCc2ccc3ccccc3n2)cc1,inhibition in vivo at 25 mg/kg,Cavia porcellus [1],< -4%
COC(=O)Cc1cccc(OCc2nc3ccccc3s2)c1,inhibition in vivo at 25 mg/kg,Cavia porcellus [1],< 33%
same,inhibition in vivo at 25 mg/kg,Cavia porcellus [14],< 65%
Cc1ccc(S(=O)(=O)NC(=O)Cc2cccc(OCc3nc4ccccc4s3)c2)cc1,inhibition in vivo at 3 mg/kg,Cavia porcellus [15],44%
same,inhibition in vivo at 3 mg/kg,Cavia porcellus [16],83%
same,inhibition in vivo at 3 mg/kg,Cavia porcellus [17],80%
same,inhibition in vivo at 25 mg/kg,Cavia porcellus [18],78%
same,inhibition in vivo at 25 mg/kg,Cavia porcellus [19],< 70%
same,inhibition in vivo at 10 mg/kg,Cavia porcellus [20],42%
same,inhibition in vivo at 25 mg/kg,Cavia porcellus [3],< 97%
same,inhibition in vivo at 10 mg/kg,Cavia porcellus [21],< 55%
CONC(=O)Cc1cccc(OCc2nc3ccccc3s2)c1,inhibition in vivo at 25 mg/kg,Cavia porcellus [1],< -4%
CONC(=O)Cc1cccc(OCc2ccc3ccccc3n2)c1,inhibition in vivo at 3 mg/kg,Cavia porcellus [22],44%
same,inhibition in vivo at 25 mg/kg,Cavia porcellus [23],83%
same,inhibition in vivo at 25 mg/kg,Cavia porcellus [24],56%
same,inhibition in vivo at 3 mg/kg,Cavia porcellus [25],2%
same,pKb,Cavia porcellus [26],6.08
same,inhibition in vivo at 50 mg/kg,Rattus norvegicus,< 41%
same,IC50,[27],14.2 µM
same,inhibition in vivo at 10 mg/kg,Cavia porcellus [28],25%
same,inhibition in vivo at 25 mg/kg,Cavia porcellus [29],86%
same,ED50,Cavia porcellus [30],7.3 mg/kg
same,ED50,Cavia porcellus [31],1.8 mg/kg
same,ED50,Cavia porcellus [32],7.9 mg/kg
same,ED50,Cavia porcellus [33],3.6 mg/kg
same,inhibition in vivo at 3 mg/kg,Cavia porcellus [34],38%
O=C(Cc1cccc(OCc2ccc3ccccc3n2)c1)NO,inhibition in vivo at 25 mg/kg,Cavia porcellus [3],< 14%
